The target in test [1] is Mitogen-activated protein kinase 10 (Homo sapiens, UniProt P53779).
Test [2] has as its target Serine/threonine-protein kinase N2 (Homo sapiens, UniProt Q16513).
Test [3] deals with T1, Non-receptor tyrosine-protein kinase TNK1 (Homo sapiens, UniProt Q13470).
T1 sequence (Q13470 whole entry): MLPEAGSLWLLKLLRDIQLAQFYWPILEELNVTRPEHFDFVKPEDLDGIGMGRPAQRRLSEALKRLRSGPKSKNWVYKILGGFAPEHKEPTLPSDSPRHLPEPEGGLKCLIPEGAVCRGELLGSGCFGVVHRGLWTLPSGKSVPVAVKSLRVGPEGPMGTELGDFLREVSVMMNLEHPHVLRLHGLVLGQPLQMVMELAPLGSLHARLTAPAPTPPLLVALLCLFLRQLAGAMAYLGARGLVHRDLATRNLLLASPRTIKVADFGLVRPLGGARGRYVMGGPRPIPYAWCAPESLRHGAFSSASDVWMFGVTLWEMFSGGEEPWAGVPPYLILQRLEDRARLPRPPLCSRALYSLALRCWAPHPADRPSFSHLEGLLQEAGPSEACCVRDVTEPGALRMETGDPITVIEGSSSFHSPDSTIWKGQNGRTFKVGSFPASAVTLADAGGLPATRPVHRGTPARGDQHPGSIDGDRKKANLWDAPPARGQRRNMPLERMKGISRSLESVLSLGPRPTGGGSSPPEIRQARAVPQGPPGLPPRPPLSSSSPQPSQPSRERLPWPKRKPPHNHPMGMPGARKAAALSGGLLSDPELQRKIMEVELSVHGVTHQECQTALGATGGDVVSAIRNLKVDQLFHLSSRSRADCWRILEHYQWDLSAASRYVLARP

The target in test [4] is Mitogen-activated protein kinase kinase kinase 4 (Homo sapiens, UniProt Q9Y6R4).
In a further test the target is Ephrin type-A receptor 2 (Homo sapiens, UniProt P29317).
Test [5] concerns the target BMP-2-inducible protein kinase (Homo sapiens, UniProt Q9NSY1).
The target of test [6] is Guanine nucleotide-binding protein G(i) subunit alpha-2 (Homo sapiens, UniProt P04899).
For test [7], the target named is Mitogen-activated protein kinase kinase kinase 20 (Homo sapiens, UniProt Q9NYL2).
The target in the next test is Ephrin type-A receptor 5 (Homo sapiens, UniProt P54756).
The target in test [8] is T2, Signal recognition particle receptor subunit alpha (Homo sapiens, UniProt P08240).
T2 sequence (P08240 whole entry): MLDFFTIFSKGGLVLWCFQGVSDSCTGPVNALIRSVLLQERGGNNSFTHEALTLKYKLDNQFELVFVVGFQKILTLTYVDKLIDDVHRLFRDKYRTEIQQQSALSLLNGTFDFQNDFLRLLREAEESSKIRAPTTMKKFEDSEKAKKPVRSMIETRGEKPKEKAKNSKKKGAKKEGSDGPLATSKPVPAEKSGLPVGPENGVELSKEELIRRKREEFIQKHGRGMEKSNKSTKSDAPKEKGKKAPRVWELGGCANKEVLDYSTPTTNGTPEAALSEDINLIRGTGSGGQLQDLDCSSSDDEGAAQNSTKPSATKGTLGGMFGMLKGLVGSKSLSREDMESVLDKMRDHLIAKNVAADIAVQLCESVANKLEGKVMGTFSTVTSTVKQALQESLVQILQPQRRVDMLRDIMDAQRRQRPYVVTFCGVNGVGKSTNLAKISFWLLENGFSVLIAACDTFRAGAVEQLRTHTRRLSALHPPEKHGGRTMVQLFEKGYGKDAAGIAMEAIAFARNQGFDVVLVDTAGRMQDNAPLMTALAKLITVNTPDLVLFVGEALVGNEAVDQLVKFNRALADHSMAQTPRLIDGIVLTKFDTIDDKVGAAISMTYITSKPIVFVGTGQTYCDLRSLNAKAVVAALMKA

In test [9] the target is Serine/threonine-protein kinase/endoribonuclease IRE2 (Homo sapiens, UniProt Q76MJ5).
The target in test [10] is Calcium/calmodulin-dependent protein kinase type II subunit gamma (Homo sapiens, UniProt Q13555).
The target of test [11] is T3, MAP kinase-activated protein kinase 5 (Homo sapiens, UniProt Q8IW41).
T3 sequence (Q8IW41 whole entry): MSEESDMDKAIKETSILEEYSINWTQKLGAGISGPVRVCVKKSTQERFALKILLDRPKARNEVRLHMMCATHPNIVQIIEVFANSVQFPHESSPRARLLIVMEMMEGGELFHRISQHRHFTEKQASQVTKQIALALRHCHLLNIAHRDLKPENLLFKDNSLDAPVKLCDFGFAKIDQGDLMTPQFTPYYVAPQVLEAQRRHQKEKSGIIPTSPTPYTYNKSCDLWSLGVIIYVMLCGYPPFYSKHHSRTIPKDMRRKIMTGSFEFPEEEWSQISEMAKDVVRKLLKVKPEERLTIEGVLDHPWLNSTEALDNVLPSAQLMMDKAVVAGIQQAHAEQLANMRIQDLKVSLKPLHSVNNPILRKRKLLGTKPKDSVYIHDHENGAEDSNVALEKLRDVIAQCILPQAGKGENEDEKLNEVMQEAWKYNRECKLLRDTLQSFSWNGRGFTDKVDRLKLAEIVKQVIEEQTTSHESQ

Test [12] concerns the target Non-receptor tyrosine-protein kinase TYK2 (Homo sapiens, UniProt P29597).
In test [13] the target is STE20-like serine/threonine-protein kinase (Homo sapiens, UniProt Q9H2G2).

Activity calls are given as the source filed them. Cut-off read from the data, not from the text of the source, for most assays here: actives have a measured Kd and inactives only a lower limit. Some results are limits rather than exact numbers.
Note: in the data inactive means no Kd found up to 30 µM.

Guanine nucleotide-binding protein G(i) subunit alpha-2, sequence (P04899 whole entry): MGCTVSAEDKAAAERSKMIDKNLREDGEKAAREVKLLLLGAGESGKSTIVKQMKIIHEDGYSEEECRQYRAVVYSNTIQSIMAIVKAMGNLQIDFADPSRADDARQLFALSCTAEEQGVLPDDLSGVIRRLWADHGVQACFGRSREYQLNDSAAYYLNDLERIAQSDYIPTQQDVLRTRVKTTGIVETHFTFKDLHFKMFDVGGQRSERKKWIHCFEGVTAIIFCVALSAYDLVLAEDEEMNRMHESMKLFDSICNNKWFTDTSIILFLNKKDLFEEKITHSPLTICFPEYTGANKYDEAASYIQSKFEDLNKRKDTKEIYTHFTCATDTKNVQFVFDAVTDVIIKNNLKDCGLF
Ephrin type-A receptor 2, sequence (P29317 whole entry): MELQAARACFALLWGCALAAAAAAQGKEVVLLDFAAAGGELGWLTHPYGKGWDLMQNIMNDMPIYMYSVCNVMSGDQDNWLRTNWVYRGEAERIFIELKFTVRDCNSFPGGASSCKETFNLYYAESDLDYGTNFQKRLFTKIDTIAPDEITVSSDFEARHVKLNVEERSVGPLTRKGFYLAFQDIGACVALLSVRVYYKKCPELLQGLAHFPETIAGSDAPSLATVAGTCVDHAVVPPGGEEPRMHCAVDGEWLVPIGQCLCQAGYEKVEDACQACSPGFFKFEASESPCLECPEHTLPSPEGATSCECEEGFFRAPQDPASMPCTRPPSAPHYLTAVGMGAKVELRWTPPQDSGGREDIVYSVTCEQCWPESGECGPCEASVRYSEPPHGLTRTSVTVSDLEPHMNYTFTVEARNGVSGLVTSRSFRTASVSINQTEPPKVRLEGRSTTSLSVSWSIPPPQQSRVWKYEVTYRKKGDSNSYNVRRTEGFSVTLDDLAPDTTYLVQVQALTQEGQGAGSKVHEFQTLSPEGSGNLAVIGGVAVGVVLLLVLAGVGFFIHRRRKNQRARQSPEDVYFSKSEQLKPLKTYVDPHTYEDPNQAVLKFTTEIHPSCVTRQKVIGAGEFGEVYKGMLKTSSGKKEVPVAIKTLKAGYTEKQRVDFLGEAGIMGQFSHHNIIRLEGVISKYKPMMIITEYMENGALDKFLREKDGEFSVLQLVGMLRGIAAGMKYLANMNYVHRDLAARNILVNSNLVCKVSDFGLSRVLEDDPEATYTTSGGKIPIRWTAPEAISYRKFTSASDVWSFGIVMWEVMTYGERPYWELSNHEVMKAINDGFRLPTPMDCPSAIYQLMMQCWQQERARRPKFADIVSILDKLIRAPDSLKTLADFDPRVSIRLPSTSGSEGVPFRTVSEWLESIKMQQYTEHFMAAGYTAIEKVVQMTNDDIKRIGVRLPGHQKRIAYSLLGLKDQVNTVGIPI
Calcium/calmodulin-dependent protein kinase type II subunit gamma, sequence (Q13555 whole entry): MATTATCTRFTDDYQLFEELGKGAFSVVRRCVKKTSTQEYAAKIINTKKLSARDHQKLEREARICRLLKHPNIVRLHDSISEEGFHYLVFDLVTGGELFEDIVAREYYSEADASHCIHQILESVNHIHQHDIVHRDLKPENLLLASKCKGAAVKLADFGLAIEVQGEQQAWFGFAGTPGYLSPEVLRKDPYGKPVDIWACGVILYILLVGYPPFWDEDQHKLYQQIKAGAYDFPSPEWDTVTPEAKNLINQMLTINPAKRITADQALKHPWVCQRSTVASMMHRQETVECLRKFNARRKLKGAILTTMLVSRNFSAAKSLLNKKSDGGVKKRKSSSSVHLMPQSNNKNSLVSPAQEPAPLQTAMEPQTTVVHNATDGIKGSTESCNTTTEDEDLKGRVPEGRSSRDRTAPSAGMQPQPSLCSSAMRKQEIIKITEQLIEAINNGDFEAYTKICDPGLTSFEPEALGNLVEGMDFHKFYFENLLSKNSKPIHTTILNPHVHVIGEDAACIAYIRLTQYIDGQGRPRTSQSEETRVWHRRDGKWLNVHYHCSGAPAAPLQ
Mitogen-activated protein kinase kinase kinase 20, sequence (Q9NYL2 whole entry): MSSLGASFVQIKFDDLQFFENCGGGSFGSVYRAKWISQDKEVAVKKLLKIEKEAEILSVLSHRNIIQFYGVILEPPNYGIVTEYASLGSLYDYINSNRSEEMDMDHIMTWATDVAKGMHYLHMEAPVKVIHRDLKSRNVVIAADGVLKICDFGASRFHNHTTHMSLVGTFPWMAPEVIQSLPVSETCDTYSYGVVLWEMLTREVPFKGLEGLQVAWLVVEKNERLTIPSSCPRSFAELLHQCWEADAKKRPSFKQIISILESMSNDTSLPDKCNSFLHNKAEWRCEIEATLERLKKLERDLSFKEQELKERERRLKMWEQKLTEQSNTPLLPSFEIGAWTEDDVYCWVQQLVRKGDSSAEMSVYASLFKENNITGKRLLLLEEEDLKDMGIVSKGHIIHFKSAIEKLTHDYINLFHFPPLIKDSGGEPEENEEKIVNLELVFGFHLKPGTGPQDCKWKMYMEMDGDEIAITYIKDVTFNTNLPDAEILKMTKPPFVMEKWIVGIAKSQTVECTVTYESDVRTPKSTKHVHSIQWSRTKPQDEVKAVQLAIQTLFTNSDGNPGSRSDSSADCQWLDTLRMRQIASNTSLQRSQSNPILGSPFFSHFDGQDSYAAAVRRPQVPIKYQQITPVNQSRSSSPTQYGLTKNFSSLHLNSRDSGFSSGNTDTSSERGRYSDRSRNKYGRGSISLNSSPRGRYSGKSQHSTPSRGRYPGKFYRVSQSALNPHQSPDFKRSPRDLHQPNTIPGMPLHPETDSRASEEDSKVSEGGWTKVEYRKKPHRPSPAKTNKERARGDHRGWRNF
Non-receptor tyrosine-protein kinase TYK2, sequence (P29597 whole entry): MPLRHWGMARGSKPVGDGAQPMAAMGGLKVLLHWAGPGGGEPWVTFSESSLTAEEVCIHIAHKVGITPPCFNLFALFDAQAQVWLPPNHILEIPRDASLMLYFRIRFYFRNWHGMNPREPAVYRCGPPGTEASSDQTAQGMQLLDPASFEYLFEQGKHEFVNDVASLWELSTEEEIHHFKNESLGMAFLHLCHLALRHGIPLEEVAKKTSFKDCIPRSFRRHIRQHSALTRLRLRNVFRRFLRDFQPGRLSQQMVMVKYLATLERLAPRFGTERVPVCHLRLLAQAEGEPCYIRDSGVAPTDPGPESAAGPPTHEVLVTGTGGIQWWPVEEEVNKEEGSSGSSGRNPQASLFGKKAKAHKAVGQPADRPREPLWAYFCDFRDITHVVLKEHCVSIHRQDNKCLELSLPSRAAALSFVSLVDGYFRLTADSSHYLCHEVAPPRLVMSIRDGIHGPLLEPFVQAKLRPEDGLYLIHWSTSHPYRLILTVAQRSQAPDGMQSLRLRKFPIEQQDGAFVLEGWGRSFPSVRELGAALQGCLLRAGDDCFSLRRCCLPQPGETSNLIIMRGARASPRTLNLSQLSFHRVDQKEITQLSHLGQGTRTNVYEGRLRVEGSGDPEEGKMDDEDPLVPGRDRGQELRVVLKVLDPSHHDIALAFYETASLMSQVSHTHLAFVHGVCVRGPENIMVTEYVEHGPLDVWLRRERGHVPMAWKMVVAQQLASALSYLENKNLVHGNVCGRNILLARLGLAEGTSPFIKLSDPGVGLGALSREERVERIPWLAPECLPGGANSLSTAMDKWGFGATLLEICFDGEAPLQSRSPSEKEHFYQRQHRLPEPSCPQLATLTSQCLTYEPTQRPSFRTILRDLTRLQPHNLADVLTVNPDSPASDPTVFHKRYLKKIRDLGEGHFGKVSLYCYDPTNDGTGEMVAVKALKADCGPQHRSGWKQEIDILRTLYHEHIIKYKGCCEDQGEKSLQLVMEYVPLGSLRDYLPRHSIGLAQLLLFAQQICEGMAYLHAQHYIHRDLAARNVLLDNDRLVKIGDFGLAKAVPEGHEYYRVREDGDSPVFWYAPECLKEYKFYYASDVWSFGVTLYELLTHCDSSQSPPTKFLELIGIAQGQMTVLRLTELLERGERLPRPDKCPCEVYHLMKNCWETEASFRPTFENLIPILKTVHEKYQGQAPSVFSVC
Mitogen-activated protein kinase 10, sequence (P53779 whole entry): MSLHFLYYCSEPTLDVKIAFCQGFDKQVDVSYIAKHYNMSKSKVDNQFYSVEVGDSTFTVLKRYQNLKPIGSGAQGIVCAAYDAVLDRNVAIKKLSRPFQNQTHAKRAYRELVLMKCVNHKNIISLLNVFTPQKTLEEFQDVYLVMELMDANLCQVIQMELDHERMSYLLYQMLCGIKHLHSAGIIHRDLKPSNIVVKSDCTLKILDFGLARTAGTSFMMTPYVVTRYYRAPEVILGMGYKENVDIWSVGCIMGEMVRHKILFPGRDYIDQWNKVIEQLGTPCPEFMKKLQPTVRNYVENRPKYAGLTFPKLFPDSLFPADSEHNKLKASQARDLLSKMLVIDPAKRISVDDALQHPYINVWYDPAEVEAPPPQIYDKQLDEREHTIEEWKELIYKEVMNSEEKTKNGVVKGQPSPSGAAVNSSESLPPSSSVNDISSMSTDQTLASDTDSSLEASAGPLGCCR

Broadly, the Kd is the constant that tells how readily two partners part at equilibrium. `FC(F)(F)c1ccc(CNc2ccc(Cc3c[nH]c4ncc(Cl)cc34)cn2)cn1` [PEXIDARTINIB]: the Kd (in test [1]; in [2]; in test [3]; in test [4]; on Ephrin type-A receptor 2; in test [5]) was > 30 µM (inactive) throughout. In addition, the Kd (in test [6]; in [7]; on Ephrin type-A receptor 5; in [8]; in test [9]; in test [10]) was > 30 µM (inactive) throughout. Moreover, the Kd in [11], in test [12] and in test [13] was > 30 µM (inactive) each time.
For `Cc1cc(C(=O)Nc2cc(Oc3ccc4nc(NC(=O)C5CC5)cn4n3)ccc2C)n(C)n1` [TAK-593], the Kd was > 30 µM (inactive) in [1]; > 30 µM (inactive) in [2]; > 30 µM (inactive) in [3]; > 30 µM (inactive) in test [4]; > 30 µM (inactive) at Ephrin type-A receptor 2; 10.9 µM (active) in test [5]. Also, the Kd (in [6]; in test [7]; at Ephrin type-A receptor 5; in test [8]; in [9]; in test [10]) was > 30 µM (inactive) in each case. Moreover, the Kd in test [11], in [12] and in test [13] was > 30 µM (inactive) throughout.
In the case of `CCc1nc(C(N)=O)c(Nc2ccc(N3CCC(N4CCN(C)CC4)CC3)c(OC)c2)nc1NC1CCOCC1` [GILTERITINIB], the Kd in test [1] is 0.512 µM (active); in test [2], > 30 µM (inactive); in [3], 0.039 µM (active); in test [4], > 30 µM (inactive); on Ephrin type-A receptor 2 it was > 30 µM (inactive); in test [5], 0.046 µM (active). The Kd is > 30 µM (inactive) in test [6]; > 30 µM (inactive) in [7]; > 30 µM (inactive) at Ephrin type-A receptor 5; > 30 µM (inactive) in test [8]; > 30 µM (inactive) in test [9]; 0.169 µM (active) in test [10]. The figures for the Kd in [11], in test [12] and in test [13] were > 30 µM (inactive), > 30 µM (inactive) and 0.068 µM (active), respectively.
For `COc1cc2ncnc3c2cc1OCCCCCN(C)Cc1ccc(Br)cc1N3` [JNJ-26483327], the Kd (in test [1]; in test [2]; in test [3]; in test [4]; on Ephrin type-A receptor 2; in [5]) was > 30 µM (inactive) each time. The Kd (in [6]; in [7]; on Ephrin type-A receptor 5; in [8]; in test [9]; in test [10]) was > 30 µM (inactive) throughout. Besides, the Kd in [11], in [12] and in test [13] was > 30 µM (inactive) throughout.
For the compound `C=CC(=O)Nc1cccc(Nc2nc(Nc3ccc(N4CCN(C(C)=O)CC4)cc3OC)ncc2C(F)(F)F)c1` [ROCILETINIB], the Kd is > 30 µM (inactive) in test [1]; > 30 µM (inactive) in [2]; 0.289 µM (active) in [3]; > 30 µM (inactive) in [4]; > 30 µM (inactive) at Ephrin type-A receptor 2; > 30 µM (inactive) in [5]. Besides, the Kd (in [6]; in test [7]; at Ephrin type-A receptor 5; in test [8]; in test [9]; in test [10]) was > 30 µM (inactive) throughout. In addition, the Kd in [11], in test [12] and in test [13] was > 30 µM (inactive) in each case.
In the case of `CCc1cc2c(cc1N1CCC(N3CCOCC3)CC1)C(C)(C)c1[nH]c3cc(C#N)ccc3c1C2=O` [ALECTINIB], the Kd (in test [1]; in test [2]; in test [3]; in test [4]; on Ephrin type-A receptor 2; in test [5]) was > 30 µM (inactive) in each case. Further, the Kd (in [6]; in test [7]; at Ephrin type-A receptor 5; in [8]; in [9]; in test [10]) was > 30 µM (inactive) throughout. Further, the Kd in test [11], in test [12] and in test [13] was > 30 µM (inactive) each time.
Consider `COc1cc2ncnc(Nc3ccc(F)c(Cl)c3)c2cc1NC(=O)/C=C/CN1CCCCC1` [DACOMITINIB ANHYDROUS], for which the Kd (in test [1]; in [2]; in [3]; in [4]; at Ephrin type-A receptor 2; in test [5]) was > 30 µM (inactive) throughout. For the same compound, the Kd (in test [6]; in [7]; at Ephrin type-A receptor 5; in test [8]; in [9]; in [10]) was > 30 µM (inactive) each time. Also, the Kd in test [11], in [12] and in test [13] was > 30 µM (inactive) in each case.
As for `Cc1cc(-c2cc(OC(=O)c3ccccc3)ccc2Cl)cc2nnc(Nc3ccc(OCCN4CCCC4)cc3)nc12` [TG100-801], the Kd in test [1] is > 30 µM (inactive); in test [2] it was > 30 µM (inactive); in [3] it was > 30 µM (inactive); in [4] it was > 30 µM (inactive); on Ephrin type-A receptor 2 it was 1.19 µM (active); in test [5], > 30 µM (inactive). For the same compound, the Kd (in test [6]; in test [7]; on Ephrin type-A receptor 5; in [8]; in [9]; in [10]) was > 30 µM (inactive) each time. Also, the Kd in test [11], in test [12] and in test [13] was > 30 µM (inactive) each time.
